Laboratory results from US20080267861A1, “Myocardial Perfusion Imaging” (CV THERAPEUTICS, INC., priority 2007, published 2008).
Each block holds one compound with its values, some of them ahead of it.

Assays:
[1] = relative to adenosine; cited from earlier work
[2] = system: patients requiring pharmacologic MPI; assay: SPECT myocardial perfusion imaging: heart-to-background ratios, image quality, perfusion defects; format: in vivo, human; conditions: for heart-to-gut ratio, mean (SD) / heart-to-liver ratio, mean (SD) / heart-to-liver+gut ratio, mean (SD): 39 patients undergoing both scans, 99mTc-Sestamibi
Protocol: (§1) In this multicenter study, subjects requiring pharmacologic MPI based on clinical criteria received adenosine infusion (Astellas Pharma, Inc.), 140 mcg/kg/min over 6 min in the supine position (AdenoSup), following enrollment and were then randomized (2:1) in a double-blind manner to a novel protocol (RegEx) consisting of 4 min of sub-maximal exercise (1.7 mph at 0% grade) with bolus intravenous injection of 400 mcg Regadenoson at 1.5 min and ^99mTechnetium-Sestamibi at 2 min or matching placebos (PlcEx).
Prior to randomization, patients were stratified based on the presence of reversible perfusion defects, defined as a two or more segments with a stress score >rest score and a stress score >2 on a 5-category scale, as interpreted by a board-certified nuclear cardiologist at each site. The 5-category scale, used both for stratifying patients and for evaluation of perfusion defects on study, was as follows: 0=normal; 1=mild reduction in tracer uptake, not definitely abnormal; 2=moderate reduction in uptake, definitely abnormal; 3=severe reduction in uptake; 4=absent uptake.
(§2) The primary objective was to assess the overall safety of Regadenoson in patients undergoing low-level stress by comparing hemodynamic, cardiac rhythm and adverse effects of the 3 protocols. In addition, patient acceptance was determined by comparing patient comfort and test protocol preference using questionnaires. Three blinded expert readers independently interpreted randomly presented perfusion scans at a nuclear core lab (Services NucMed, Montreal, Canada). Image quality was compared between AdenoSup and RegEx by computation of heart-to-liver and heart-to-gut ratios and the readers' visual assessment of overall image quality and image quality with respect to subdiaphragmatic interference specifically. A 17-segment MPI model was used by the core lab readers, to compare the extent of the perfusion defect between RegEx and AdenoSup quantitatively and also qualitatively with side-by-side visual comparison. Patients were required to abstain from methylxanthine-containing foods and beverages for 12 hours prior to receiving study drug and adenosine. The protocol was approved by an institutional review board and all patients provided written informed consent.
Nuclear imaging was performed using either a dual isotope protocol or a two-day ^99mTechnetium-Sestainibi protocol at the investigators' discretion. However, men with body weight >220 pounds and body mass index >30 kg/m2 and women with body weight >200 pounds and body mass index >30 kg/m2 were to undergo the two day protocol. The single photon emission computed tomography (SPECT) imaging was standardized for image acquisition and transmittal in accordance with the American Society of Nuclear Cardiology guidelines. The protocol required an extra ˜8 mSv radiation to the patients in the study arm, and none to the patients in the control (placebo exercise) arm.
The dual isotope protocol was performed over 2 separate days. On the first day, patients were to have a rest scan with ^201Thallium followed by a ^99mTechnetium-Sestamibi adenosine-supine MPI; on a subsequent day, patients underwent a ^99mTechnetium-Sestamibi study drug (i.e., regadenoson or placebo) sub-maximal treadmill exercise MPI.
The multi-day ^99mTechnetium-Sestamibi was performed over 3 days. On the first day, patients were to have a ^99mTechnetium-Sestamibi adenosine supine MPI or ^99mTechnetium-Sestamibi rest scan. […] The second and third days were not necessarily consecutive to the first day.
The stress MPI scans were to be performed 60±10 minutes after the start of adenosine or study drug.
Changes in blood pressure, heart rate, and ECG intervals were computed over time and compared (Regadenoson vs. placebo) using repeated measures, mixed-model ANOVA. The incidence of symptomatic hypotension, systolic blood pressure decreases of >20 mm Hg, ECG abnormalities, and severe or related adverse events was compared using Fisher's exact test. […]

[3] = system: patients requiring pharmacologic MPI; assay: Patient comfort and test protocol preference questionnaires; format: in vivo, human; conditions: for tolerability: 400 mcg bolus during low-level exercise
Protocol: as §2
Cohen's kappa for the categories 0-3, 4-7, 8-11, and >12 (SSS) and 0-6, 7-13, and >14 (SDS). The number of segments with reversible perfusion defects was defined as the median number across the three readers. Subject comfort and tolerability were assessed using a 4-point scale and the regimens compared using a Cochran-Mantel-Haenszel test of equality of mean scores. Data are expressed as mean (SD) unless otherwise specified. Statistical analyses were conducted using SAS version 9.1. Statistical significance was defined as a p-value of <0.05.

[4] = system: patients requiring pharmacologic MPI; assay: Adverse events during MPI protocols; format: in vivo, human; conditions: for frequency of dyspnea: 39 crossover patients
Protocol: as §1, §2
(§3) Changes in blood pressure, heart rate, and ECG intervals were computed over time and compared (Regadenoson vs. placebo) using repeated measures, mixed-model ANOVA. The incidence of symptomatic hypotension, systolic blood pressure decreases of >20 mm Hg, ECG abnormalities, and severe or related adverse events was compared using Fisher's exact test. The quality of nuclear MPI scans following regadenoson and low-level exercise was compared to adenosine-supine MPI scans of the same subject using the sign test. Radiotracer target-to-background ratios were computed and compared between the two imaging regimens using the Wilcoxon signed ranks test. Semi-quantitative scoring of perfusion defects (Summed Stress Score (SSS), Summed Difference Score (SDS), etc.) was conducted using a 17-segment polar map and the quality of agreement between the two imaging regimens was assessed using […]

[5] = system: patients requiring pharmacologic MPI; assay: Hemodynamic, cardiac rhythm and ECG effects of MPI protocols; format: in vivo, human; conditions: for effects on ECG intervals: AdenoSup, RegEx and PlcEx compared; for patients with arrhythmias following both AdenoSup and RegEx / patients with arrhythmias following this protocol only: adverse events or ECG findings; for occurrences of 2nd degree or higher AV block: in vivo
Protocol: as §1, §2, §3

[6] = AdenoSup, later randomized to RegEx (n = 39)

Structure (SMILES): OCCN(CCO)c1nc(N2CCCCC2)c2nc(N(CCO)CCO)nc(N3CCCCC3)c2n1 [dipyridamole]
half-life [1]: longer than that of adenosine

patients reporting being very uncomfortable or extremely uncomfortable ([3]; 4-point scale): No patients
patients reporting the test as "a little uncomfortable" ([3]; 4-point scale): 41%
patients reporting the test as "comfortable" ([3]; 4-point scale): 59%
Structure (SMILES): CNC(=O)c1cnn(-c2nc(N)c3ncn([C@@H]4O[C@H](CO)[C@@H](O)[C@H]4O)c3n2)c1 [Regadenoson, (1-{9-[(4S,2R,3R,5R)-3,4-dihydroxy-5-(hydroxymethyl)oxolan-2-yl]-6-aminopurin-2-yl}pyrazol-4-yl)-N-methylcarboxamide]
heart-to-gut ratio, mean (SD) [2]: 1.1 (0.36)
heart-to-liver ratio, mean (SD) [2]: 0.85 (0.34)
heart-to-liver+gut ratio, mean (SD) [2]: 0.93 (0.26)
image quality with respect to subdiaphragmatic interference, side-by-side RegEx vs AdenoSup ([2]; 39 patients, blinded readers): significantly better
overall image quality, side-by-side comparison RegEx vs AdenoSup ([2]; 39 patients, blinded readers, listed as RegEx): significantly better overall image quality
patients in whom reversible perfusion defects were detected ([2]; of 39 patients): 64.1%
patients in whom reversible perfusion defects were detected ([2]; out of 39 patients): 25
tolerability [3]: feasible and well tolerated
tolerability ([3]; listed as RegEx): well tolerated
frequency of dyspnea [4]: 54%
patients with severe adverse events ([4]; AdenoSup: of 60 patients): no patient
Adverse event: Chest Pain, patients ([4]; RegEx (n = 39)): 0
Adverse event: Pain in Jaw, patients ([4]; RegEx (n = 39)): 0
Adverse event: Throat tightness, patients ([4]; RegEx (n = 39)): 0
patients with at least one adverse event ([4]; n=39): 77%
heart rate over the pre-exercise baseline ([5]; 24 minutes following start of exercise, mean (SE)): +4.6 (SE 1.5) bpm
effects on ECG intervals [5]: similar
peak heart rate greater than following AdenoSup ([5]; RegEx vs AdenoSup): 21 bpm
peak heart rate greater than following PlcEx ([5]; RegEx vs PlcEx): 13 bpm
systolic blood pressure analyses (change in mean SBP, nadir SBP, decline >20 mm Hg) ([5]; RegEx vs PlcEx and vs AdenoSup): no important differences
patients with arrhythmias following both AdenoSup and RegEx [5]: 2
patients with arrhythmias following this protocol only [5]: 1
heart rate higher than the pre-exercise baseline ([5]; by 24 minutes following the study drug bolus): < 5 bpm
occurrences of 2nd degree or higher AV block [5]: No occurrences
peak heart rate, increase from resting baseline ([5]; mean (SE)): 41.9 (SE 2.7) bpm
increase of mean maximum heart rate over sub-maximal exercise with placebo ([5]; with sub-maximal exercise): 16.5 beats per minute
mean maximum heart rate increase ([5]; with sub-maximal exercise (Discussion)): +40.2 (1.5) bpm

Structure (SMILES): Nc1ncnc2c1ncn2[C@@H]1O[C@H](CO)[C@@H](O)[C@H]1O [Adenosine, adenosine, reference compound]
heart-to-gut ratio, mean (SD) [2]: 0.97 (0.34)
heart-to-liver ratio, mean (SD) [2]: 0.65 (0.26)
heart-to-liver+gut ratio, mean (SD) [2]: 0.72 (0.18)
patients in whom reversible perfusion defects were detected ([2]; of 39 patients): 51.3%
patients in whom reversible perfusion defects were detected ([2]; out of 39 patients): 20
frequency of dyspnea [4]: 41%
patients with at least one adverse event ([4]; 62 patients dosed): 95%
Adverse event: Stomach Discomfort, patients ([4]; AdenoSup, later randomized to PlcEx (n = 21)): 0
Adverse event: Dizziness, patients [4, 6]: 0
Adverse event: Pain in Jaw, patients [4, 6]: 0
patients with severe adverse events ([4]; AdenoSup: of 60 patients): 4
patients with protocol-defined symptomatic hypotension ([4]; in vivo): One
patients with severe adverse events ([4]; of 60 patients): 6.7%
effects on ECG intervals [5]: similar
patients with arrhythmias following both AdenoSup and RegEx [5]: 2
patients with arrhythmias following this protocol only [5]: 3
occurrences of 2nd degree or higher AV block [5]: one
peak heart rate, increase from resting baseline ([5]; mean (SE)): +21.0 (SE 2.5) bpm
